Data reported in PMC11466185, “Mechanisms and efficacy of small molecule latency-promoting agents to inhibit HIV reactivation ex vivo” (JCI Insight, 2024).
Values joined by “and” are separate entries in the source; they are usually repeats but may differ in a detail not shown here. Equal entries are not always repeated. Where two headings read alike, the source gives them in different places.

How the values were obtained:
[1] = system: HIV transcripts (TAR, LLTR, Pol, PolyA, TatRev); assay: Latency reversal assay: cell-associated HIV transcripts (RT-ddPCR) 24 hours after anti-CD3/CD28 activation of PBMCs from ART-suppressed PWH; format: cell-based; set-up: Elongated (LLTR) HIV transcripts, median relative to activated DMSO, initial screening / Midtranscribed (Pol) HIV transcripts, median relative to activated DMSO, initial screening / Multiply spliced (TatRev) HIV transcripts, median relative to activated DMSO, initial screening: concentration or dose not given beside the values; conditions: for Effect on HIV transcripts in the initial drug screen (in words) / Multiply spliced (TatRev) HIV transcripts, median relative to activated DMSO, initial screening / Completed (PolyA) HIV transcripts, median relative to activated DMSO, initial screening: initial screening, 2 participants; for Effect on HIV transcripts in the initial drug screen (in words): 24 hours after activation; for Multiply spliced (TatRev) HIV transcripts, median relative to activated DMSO, initial screening / Multiply spliced HIV transcripts (TatRev) (Fig 1B) / Completed (PolyA) HIV transcripts, median relative to activated DMSO, initial screening: 24 hours; for Multiply spliced (TatRev) HIV transcripts, median relative to activated DMSO, initial screening: Figure 1B; for Multiply spliced (TatRev) HIV transcripts, median relative to activated DMSO, initial screening / Completed (PolyA) HIV transcripts, median relative to activated DMSO, initial screening: Supplemental Figure 2; for mrna remaining at 0.1 µM: 100nM
Description: We selected 26 small molecules targeting pathways implicated in HIV transcription or the blocks to HIV transcription underlying latency (Supplemental Table 1). […] Initial screening of all drugs was performed in freshly isolated PBMCs from 2 ART-suppressed individuals (Figure 1 and Supplemental Figure 2). PBMCs were cultured in the presence of individual drugs in DMSO or DMSO alone as a control, subsequently activated (anti-CD3/CD28), and harvested after 24 hours. […] The progression through different blocks to HIV transcription was quantified by measuring the levels of initiated (TAR), 5′ elongated (LLTR), midtranscribed/unspliced (Pol), completed (PolyA), and multiply spliced (TatRev) HIV transcripts. The levels of those HIV transcripts were normalized to 1 μg of total cellular RNA (to normalize for the effect of the drug on global cellular transcription) and expressed as a percentage of the activated DMSO control.
(§1) Figure 1 Screening of candidate LPAs by measuring the change in multiply spliced HIV transcripts after activation. Each drug was tested in PBMCs from 2 ART-suppressed study participants (denoted in the legend by varying symbol shapes). PBMCs were aliquoted into wells at 6 × 10^6 cells/well. After activation, the cells were cultured with antiretrovirals in the presence of individual drugs in DMSO or DMSO alone as control. All conditions were tested in the presence of CD3/28 T cell–activating beads, except for the unactivated DMSO condition. (A) After 24 hours, the viability was measured by trypan blue staining and then normalized to the levels of the activated DMSO (% of activated DMSO). Bars indicate medians. (B) Total cellular RNA was extracted, and the levels of multiply spliced HIV transcripts (TatRev) were measured by RT-ddPCR, normalized to 1 μg of total cellular RNA, and expressed as a percentage of the activated DMSO control (% of activated DMSO). RT-dd, reverse transcription digital droplet; vRNA, viral RNA; HAT, histone acetyltransferase.
The ability of our candidate LPAs to inhibit HIV transcriptional progression after activation was examined in PBMCs from a minimum of 7 PWH per drug tested (Figure 3). PBMCs were cultured in the presence of individual drugs in DMSO or in DMSO alone as a control, subsequently activated (anti-CD3/CD28), and harvested after 24 hours.
Each drug was tested in PBMCs from 7 ART-suppressed study participants. The PBMCs were aliquoted into wells at 6 × 10^6 cells/well. After activation, the cells were cultured with antiretrovirals in the presence of individual drugs in DMSO or DMSO alone as control. All conditions were tested in the presence of CD3/28 T cell–activating beads, except for the unactivated DMSO condition. After 24 hours, total RNA was extracted, and the progression through different stages of HIV transcription was quantified by measuring the levels of initiated (TAR), 5′ elongated (LLTR), midtranscribed/unspliced (Pol), completed (PolyA), and multiply spliced (TatRev) HIV transcripts. (A) The levels of all HIV transcripts were normalized to 1 μg of total cellular RNA and expressed as a percentage of the activated DMSO control (% of activated DMSO). Medians are shown as well as the individual values per study participant in different colors. (B–D) The effect of each drug on HIV transcriptional progression after activation was analyzed by the ratio of one HIV transcript to another. Ratios are independent of HIV infection frequency or normalization to cell numbers. Shown are the proportion of (B) all HIV transcripts that were elongated (LLTR/TAR), (C) elongated HIV transcripts that were completed spliced (PolyA/LLTR), and (D) completed transcripts that were multiply spliced (TatRev/PolyA).

[2] = system: PBMCs; assay: Cell viability by trypan blue staining after 24 hours; format: cell-based, human
Description: as §1
For quantification of cell-associated HIV transcripts, PBMCs were harvested either after 24 hours or after 6 days. The cell viabilities were measured by trypan blue staining; then the cells were pelleted by centrifuging at 300g for 6 minutes and stored at –80°C. For quantification of virion-associated HIV RNA, cell culture supernatant was collected from 6 × 10^6 PBMCs that were treated and activated for 6 days as described above. Residual cells and cellular debris were subsequently removed from the supernatant by differential centrifugation (300g for 6 minutes, then 20,000g for 10 minutes), and the supernatant was stored at –80°C.

[3] = 10μM, 24 h after αCD3/28 activation, each column one participant

SMILES: Nc1ncnc2c1ncn2[C@@H]1O[C@H](CO)C[C@H]1O [cordycepin]
- Effect on HIV transcripts in the initial drug screen (in words) [1]: did not observe any reduction
- Viability (Fig 1A) ([2]; study participant 150a): 101.9 % of activated DMSO
- Viability (Fig 1A) ([2]; study participant 152): 92.02 % of activated DMSO

SMILES: CC(=O)S[C@@H]1CC2=CC(=O)CC[C@]2(C)[C@H]2CC[C@@]3(C)[C@@H](CC[C@@]34CCC(=O)O4)[C@H]12 [spironolactone]
- Effect on HIV transcripts in the initial drug screen (in words) [1]: little reduction
- Viability (Fig 1A) ([2]; study participant 150a): 102.53 % of activated DMSO
- Viability (Fig 1A) ([2]; study participant 152): 102.65 % of activated DMSO

SMILES: Cn1cc(C2=C(c3cn(C4CCN(Cc5ccccn5)CC4)c4ccccc34)C(=O)NC2=O)c2ccccc21 [enzastaurin]
- Viability (Fig 1A) ([2]; study participant 150a): 100.98 % of activated DMSO
- Viability (Fig 1A) ([2]; study participant 152): 98.98 % of activated DMSO

SMILES: Oc1ccc(/C=C/c2cc(O)cc(O)c2)cc1 [resveratrol]
- Viability (Fig 1A) ([2]; study participant 150a): 102.48 % of activated DMSO
- Viability (Fig 1A) ([2]; study participant 152): 91.76 % of activated DMSO

SMILES: Nc1ccc(O)c(C(=O)O)c1 [mesalamine]
- Effect on HIV transcripts in the initial drug screen (in words) [1]: did not observe any reduction
- Viability (Fig 1A) ([2]; study participant 150a): 102.78 % of activated DMSO
- Viability (Fig 1A) ([2]; study participant 152): 98.77 % of activated DMSO

SMILES: Nc1nc2nn[nH]c2c(=O)[nH]1 [8-azaguanine]
- Effect on HIV transcripts in the initial drug screen (in words) [1]: did not observe decreases
- Multiply spliced (TatRev) HIV transcripts, median relative to activated DMSO, initial screening [1]: increase in multiply spliced transcripts
- Viability (Fig 1A) ([2]; study participant 150a): 106.88 % of activated DMSO
- Viability (Fig 1A) ([2]; study participant 152): 98.65 % of activated DMSO

SMILES: CCCCCCCCCCCCCCC=C(C(=O)OCC)C(=O)OCC [SPV-106]
- LLTR HIV transcripts (DMSO+αCD3/28 = 100) [1, 3]: 123.81 and 93.28
- Pol HIV transcripts (DMSO+αCD3/28 = 100) [1, 3]: 71.05 and 12.29
- PolyA HIV transcripts (DMSO+αCD3/28 = 100) [1, 3]: 64.82 and 38.96
- TatRev HIV transcripts (DMSO+αCD3/28 = 100) [1, 3]: 60.34 and 263.16
- Effect on HIV transcripts in the initial drug screen (in words) [1]: did not observe any reduction
- Multiply spliced HIV transcripts (TatRev) (Fig 1B) ([1]; study participant 150a): 60.34 % of activated DMSO
- Multiply spliced HIV transcripts (TatRev) (Fig 1B) ([1]; study participant 152): 263.16 % of activated DMSO
- Viability (Fig 1A) ([2]; study participant 150a): 103.1 % of activated DMSO
- Viability (Fig 1A) ([2]; study participant 152): 97.61 % of activated DMSO

SMILES: CN[C@@H]1C[C@H]2O[C@@](C)([C@@H]1OC)n1c3ccccc3c3c4c(c5c6ccccc6n2c5c31)C(=O)NC4 [staurosporine]
- Completed (PolyA) HIV transcripts, median relative to activated DMSO, initial screening [1]: 41%
- Viability (Fig 1A) ([2]; study participant 150a): 109.29 % of activated DMSO
- Viability (Fig 1A) ([2]; study participant 152): 100.37 % of activated DMSO

SMILES: COc1cc(F)ccc1-c1ncnc(Nc2cccc(C[S@](C)(=N)=O)c2)n1 [atuveciclib]
- Multiply spliced (TatRev) HIV transcripts, median relative to activated DMSO, initial screening [1]: 46%
- Viability (Fig 1A) ([2]; study participant 150a): 108.3 % of activated DMSO
- Viability (Fig 1A) ([2]; study participant 152): 95.7 % of activated DMSO

SMILES: CN1CCN(c2nc(C3=C(c4c[nH]c5ccccc45)C(=O)NC3=O)c3ccccc3n2)CC1 [sotrastaurin]
- mrna remaining at 0.1 µM ([1]; Human immunodeficiency virus 1, PBMC, 24 h, 24 h after αCD3/28 activation, each column one participant, read-out: LLTR HIV transcripts (DMSO+αCD3/28 = 100)): 99.4%
- mrna remaining at 0.1 µM ([1]; Human immunodeficiency virus 1, PBMC, 24 h, 24 h after αCD3/28 activation, each column one participant, read-out: Pol HIV transcripts (DMSO+αCD3/28 = 100)): 51.5%
- mrna remaining at 0.1 µM ([1]; Human immunodeficiency virus 1, PBMC, 24 h, 24 h after αCD3/28 activation, each column one participant, read-out: PolyA HIV transcripts (DMSO+αCD3/28 = 100)): 39.3%
- Completed (PolyA) HIV transcripts, median relative to activated DMSO, initial screening [1]: 41%
- Viability (Fig 1A) ([2]; study participant 150a): 103.88 % of activated DMSO
- Viability (Fig 1A) ([2]; study participant 152): 98.33 % of activated DMSO

SMILES: C[C@H]1O[C@@H](O[C@H]2[C@@H](O)C[C@H](O[C@H]3[C@@H](O)C[C@H](O[C@H]4CC[C@@]5(C)[C@H](CC[C@@H]6[C@@H]5C[C@@H](O)[C@]5(C)[C@@H](C7=CC(=O)OC7)CC[C@]65O)C4)O[C@@H]3C)O[C@@H]2C)C[C@H](O)[C@@H]1O [digoxin]
- mrna remaining at 0.0025 µM ([1]; Human immunodeficiency virus 1, PBMC, 24 h, 2.5nM, 24 h after αCD3/28 activation, each column one participant, read-out: PolyA HIV transcripts (DMSO+αCD3/28 = 100)): 87%
- Effect on HIV transcripts in the initial drug screen (in words) [1]: did not observe decreases
- Viability (Fig 1A) ([2]; study participant 150a): 98.44 % of activated DMSO
- Viability (Fig 1A) ([2]; study participant 152): 105.27 % of activated DMSO

SMILES: CC(=O)Oc1ccccc1C(=O)O [aspirin]
- Effect on HIV transcripts in the initial drug screen (in words) [1]: did not observe much reduction
- Viability (Fig 1A) ([2]; study participant 150a): 99.56 % of activated DMSO
- Viability (Fig 1A) ([2]; study participant 152): 95.5 % of activated DMSO
